ChEMBL document CHEMBL1201862, “PubChem BioAssay data set” (2004)
Activity calls are given as the source filed them.

How the values were obtained:
[1] = target: T1, Replicative DNA helicase DnaB (Mycobacterium tuberculosis, UniProt P9WMR3); assay: DnaB intein splicing inhibitors, dose response, biochemical, cell-free fluorescence (AID 449749); assay type: functional
T1 sequence (P9WMR3 whole entry): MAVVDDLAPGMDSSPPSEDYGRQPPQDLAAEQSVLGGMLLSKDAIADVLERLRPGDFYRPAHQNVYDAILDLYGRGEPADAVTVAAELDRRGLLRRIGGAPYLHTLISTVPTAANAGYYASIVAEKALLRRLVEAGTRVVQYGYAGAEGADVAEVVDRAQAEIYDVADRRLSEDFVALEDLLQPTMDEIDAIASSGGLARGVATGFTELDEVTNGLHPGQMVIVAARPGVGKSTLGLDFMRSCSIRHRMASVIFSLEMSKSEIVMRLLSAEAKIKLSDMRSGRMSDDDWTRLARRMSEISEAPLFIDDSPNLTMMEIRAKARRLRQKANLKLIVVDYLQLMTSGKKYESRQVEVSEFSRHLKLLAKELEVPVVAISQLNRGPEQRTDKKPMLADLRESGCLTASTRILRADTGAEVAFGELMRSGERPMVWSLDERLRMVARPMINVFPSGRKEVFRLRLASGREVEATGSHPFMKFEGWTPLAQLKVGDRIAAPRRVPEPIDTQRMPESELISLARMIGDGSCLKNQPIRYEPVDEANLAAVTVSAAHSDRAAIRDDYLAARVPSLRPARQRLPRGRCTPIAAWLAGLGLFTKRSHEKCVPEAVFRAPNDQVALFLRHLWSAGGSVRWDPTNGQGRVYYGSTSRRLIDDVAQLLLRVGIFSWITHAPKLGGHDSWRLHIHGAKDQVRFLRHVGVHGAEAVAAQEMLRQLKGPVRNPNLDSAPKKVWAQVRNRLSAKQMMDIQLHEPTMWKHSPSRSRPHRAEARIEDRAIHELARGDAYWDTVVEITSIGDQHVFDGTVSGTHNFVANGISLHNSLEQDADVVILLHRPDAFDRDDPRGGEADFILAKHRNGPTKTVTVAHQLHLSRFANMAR

[2] = target: T2, Protein RecA (Mycobacterium tuberculosis, UniProt P9WHJ3); assay: Fluorescence Cell-Free Homogeneous Dose Retest to Identify Inhibitors of RecA-Intein Splicing Activity. [Related pubchem assays (depositor defined):AID2097, AID2223, AID489010, AID492950]; assay type: functional
T2 sequence (P9WHJ3 whole entry): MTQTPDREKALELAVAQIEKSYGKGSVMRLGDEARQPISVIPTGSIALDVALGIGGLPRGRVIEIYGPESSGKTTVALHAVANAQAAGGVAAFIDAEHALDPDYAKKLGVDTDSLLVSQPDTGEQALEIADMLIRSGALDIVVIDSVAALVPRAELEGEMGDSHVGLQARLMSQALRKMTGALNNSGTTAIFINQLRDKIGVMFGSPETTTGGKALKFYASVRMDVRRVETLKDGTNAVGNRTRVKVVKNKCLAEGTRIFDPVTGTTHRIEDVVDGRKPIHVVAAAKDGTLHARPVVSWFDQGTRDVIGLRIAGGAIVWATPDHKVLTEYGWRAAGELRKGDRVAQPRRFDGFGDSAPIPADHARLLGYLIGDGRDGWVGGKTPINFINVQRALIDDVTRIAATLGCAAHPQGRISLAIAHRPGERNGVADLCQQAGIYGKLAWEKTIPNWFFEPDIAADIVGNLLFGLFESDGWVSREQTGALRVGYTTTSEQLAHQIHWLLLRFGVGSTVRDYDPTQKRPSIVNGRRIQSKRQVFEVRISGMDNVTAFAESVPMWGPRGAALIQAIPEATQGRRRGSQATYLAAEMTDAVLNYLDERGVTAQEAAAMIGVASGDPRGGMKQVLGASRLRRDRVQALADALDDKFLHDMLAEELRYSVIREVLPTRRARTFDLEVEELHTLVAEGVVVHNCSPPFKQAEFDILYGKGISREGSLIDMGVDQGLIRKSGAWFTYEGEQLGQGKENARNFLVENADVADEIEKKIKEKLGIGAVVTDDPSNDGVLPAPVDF

[3] = Luminescence Cell-Based Dose Confirmation HTS to Identify Activators of 5'UTR Stem-Loop Driven Alpha-Synuclein mRNA Translation in H4 Neuroglioblastoma Cells. [Related pubchem assays: 1829 (Project Summary), 1814 (Primary HTS)]; assay type: functional
[4] = Luminescence Cell-Based Dose Response HTS to Identify Activators of Luciferase Translation or Activity in H4 […] Cells. [Related pubchem assays: 1829 (Project Summary), 1814 (Primary HTS)]; assay type: functional
[5] = test system: H4; assay: Luminescence Cell-Based Dose Response HTS to Identify Activators of 5'UTR Stem-Loop Driven Prion Protein mRNA Translation in H4 Neuroglioblastoma Cells. [Related pubchem assays: 1829 (Project Summary), 1814 (Primary HTS)]; assay type: functional; conditions: Homo sapiens
[6] = test system: H9c2; assay: cells; assay type: functional, cell-based; conditions: Rattus norvegicus, H9c2, Myocardium;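 note: confirmatory concentration-response retest of ultra-high-throughput screening hits for modulation of myocardial damage; cell death induced by hydrogen peroxide oxidative stress; compound pretreatment for 60 min then peroxide exposure for 2 h; potency is for protecting the cells against peroxide damage rather than for killing them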
[7] = target: T3, Ubiquitin-conjugating enzyme E2 N (Homo sapiens, UniProt P61088); assay type: functional;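 note: Dose-response confirmation in a TR-FRET assay detecting UBC13-driven polyubiquitin chain formation, inhibition measured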
T3 sequence (P61088 whole entry): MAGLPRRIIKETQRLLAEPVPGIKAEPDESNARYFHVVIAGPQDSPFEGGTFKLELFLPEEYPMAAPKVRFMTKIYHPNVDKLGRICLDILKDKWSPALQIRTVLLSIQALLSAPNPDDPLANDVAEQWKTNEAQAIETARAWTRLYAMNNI

[8] = target: T4, RNA-binding protein pos-1 (Caenorhabditis elegans, UniProt G5EF15); assay: inhibitors of POS-1/mex-3 RNA binding, dose response, biochemical, fluorescence polarization (AID 1964);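 note: purified POS-1 fused to maltose binding protein made in E. coli; potency of compounds blocking POS-1 binding to fluorescent RNA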
T4 sequence (G5EF15 whole entry): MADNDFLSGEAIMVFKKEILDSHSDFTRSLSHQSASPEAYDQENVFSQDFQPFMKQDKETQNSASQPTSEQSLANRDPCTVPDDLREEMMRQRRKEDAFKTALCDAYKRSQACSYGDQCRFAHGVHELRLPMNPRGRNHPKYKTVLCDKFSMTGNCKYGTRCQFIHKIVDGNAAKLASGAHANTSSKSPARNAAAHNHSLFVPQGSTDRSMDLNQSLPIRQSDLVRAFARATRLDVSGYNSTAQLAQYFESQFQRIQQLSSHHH

[9] = target: T5, Zinc finger protein mex-5 (Caenorhabditis elegans, UniProt Q9XUB2); assay: MEX-5/TCR-2 RNA interaction inhibitors, dose response, biochemical, C. elegans, fluorescence polarization (AID 1960)
T5 sequence (Q9XUB2 whole entry): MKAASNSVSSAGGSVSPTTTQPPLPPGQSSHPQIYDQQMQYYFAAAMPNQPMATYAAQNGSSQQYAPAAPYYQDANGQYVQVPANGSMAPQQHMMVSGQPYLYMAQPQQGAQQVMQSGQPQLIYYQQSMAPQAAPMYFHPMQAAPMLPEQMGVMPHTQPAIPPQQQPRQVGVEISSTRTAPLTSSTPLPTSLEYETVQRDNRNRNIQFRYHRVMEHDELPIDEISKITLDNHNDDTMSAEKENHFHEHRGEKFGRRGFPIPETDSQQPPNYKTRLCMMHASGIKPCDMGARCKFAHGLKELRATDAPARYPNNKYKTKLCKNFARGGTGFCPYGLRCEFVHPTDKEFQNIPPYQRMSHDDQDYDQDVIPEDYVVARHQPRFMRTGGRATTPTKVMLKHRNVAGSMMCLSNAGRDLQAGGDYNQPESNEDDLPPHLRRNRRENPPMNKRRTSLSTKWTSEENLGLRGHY

[10] = Luminescence Cell-Based Dose Retest to Confirm Inhibitors of Cancer Stem Cells. [Related pubchem assays (depositor defined):AID2717, AID2721]; assay type: functional; conditions: Homo sapiens
[11] = test system: INS1; assay: beta cell apoptosis inhibitors, cytokine rescue, dose response, luminescence, retest (AID 449756); assay type: functional, cell-based; conditions: Rattus norvegicus;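 note: cell death triggered by IL-1 beta plus TNF-alpha plus IFN-gamma mixture; protective hits raise ATP signal compared with cytokine alone wells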
[12] = target: FAD-linked sulfhydryl oxidase ALR (Homo sapiens, UniProt P55789); assay: inhibitors of human ALR sulfhydryl oxidase, dose response, biochemical, H2O2 detection, luminescence, cherry-pick (AID 493248)
FAD-linked sulfhydryl oxidase ALR, sequence (P55789 whole entry): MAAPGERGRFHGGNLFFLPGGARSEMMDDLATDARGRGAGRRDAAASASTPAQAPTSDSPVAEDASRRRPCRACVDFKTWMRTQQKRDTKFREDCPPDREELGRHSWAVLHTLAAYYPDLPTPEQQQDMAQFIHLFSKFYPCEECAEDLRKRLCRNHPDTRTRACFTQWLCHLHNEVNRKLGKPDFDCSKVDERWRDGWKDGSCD

[13] = Shn3 3'UTR reporter inhibitors, dose response, cell-based, Clone20 osteoblasts, firefly luciferase, cherry-picked (AID 624132); assay type: functional;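 note: firefly luciferase luminescence from reporter carrying the Shn3 3'UTR in osteoblasts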
[14] = cells; assay type: functional

## Oc1ccc(O)c(Cc2nc3ccccc3s2)c1
[1]
  AC50: 33.1 µM (active)
[2]
  EC50: > 380 µM (inactive)

## Cc1cnc(C(=O)Nc2ccc(OC(F)(F)F)cc2)cn1
[3]
  EC50: 13.9 µM (active)
[4]
  EC50: 17.5 µM (active)
[5]
  EC50: 98.1 µM (active)

## Cc1cc(NC(=O)C2CCCCC2)nc2c1c(=O)oc1ccccc12
[6]
  IC50: 7.59 µM (active)

## Cc1cc(N2CCN(C)CC2)nc2ccc(NC(=S)N3CCN(c4cccc(Cl)c4)CC3)cc12
[7]
  IC50: > 20 µM (inactive)

## COc1ccc(NC2=C(Cl)C(=O)N(CCc3ccccc3)C2=O)c(OC)c1
[3]
  EC50: 5.35 µM (active)
[4]
  EC50: 8.34 µM (active)
[5]
  EC50: 33.2 µM (active)

## Cc1ccc(S(=O)(=O)C(C#N)c2nc3ccccc3nc2N2CCC(C)CC2)cc1 (stereo unspecified)
[8]
  EC50: > 300 µM (inconclusive)
[9]
  EC50: 24.6 µM (active)

## CCC(=O)OC1(C)C(=O)C=C2C=C(CCCC(=O)OC)OC=C2C1=O (stereo unspecified)
[8]
  EC50: 27.8 µM (active)
[9]
  EC50: 22.8 µM (active)

## COc1ccc(C2C=C(c3ccc(Br)s3)Nc3ncnn32)cc1OC (stereo unspecified)
[8]
  EC50: 7.82 µM (active)
[9]
  EC50: 6.36 µM (inconclusive)

## Cc1ccc(NC(=O)C2=C(O)CCn3c2nc2ccccc23)cc1
[3]
  EC50: > 120 µM (not active)
[4]
  EC50: 12.5 µM (active)
[5]
  EC50: > 60 µM (not active)

## CCn1ccnc1CN(C)Cc1nc(-c2ccc3c(c2)OCO3)no1
[3]
  EC50: 6.38 µM (active)
[4]
  EC50: 12.5 µM (active)
[5]
  EC50: 21.4 µM (active)

## COc1ccc(NC(=O)c2oc3ccc(S(=O)(=O)N4CCOCC4)cc3c2C)cc1
[6]
  IC50: > 79 µM (inactive)

## CCOC(=O)c1[nH]c(C)c(C(=O)Nc2ccc(C)c(Cl)c2)c1C
[3]
  EC50: > 120 µM (not active)
[4]
  EC50: 13.3 µM (active)
[5]
  EC50: > 120 µM (not active)

## CCC(=O)OC1(C)C(=O)C=C2C=C(CCCCNC(=O)OC(C)(C)C)OC=C2C1=O (stereo unspecified)
[8]
  EC50: 33.5 µM (active)
[9]
  EC50: 28.4 µM (active)

## COC(=O)c1ccccc1-n1c(CCC(=O)O)ccc1-c1ccccc1
[8]
  EC50: > 300 µM (not active)
[9]
  EC50: > 300 µM (not active)

## COc1ccccc1NC(=O)c1cc(-c2cc(OC)c(OC)c(OC)c2)nc2ccccc12
[6]
  IC50: > 79 µM (inactive)

## O=C1c2ccccc2C(=O)N1CCCc1nc(-c2ccncc2)no1
[8]
  EC50: > 300 µM (not active)
[9]
  EC50: > 300 µM (not active)

## COc1ccccc1CNC(=O)c1ccc2c(=O)n(CCCN3CCCC3=O)c(=S)[nH]c2c1
[7]
  IC50: > 20 µM (inactive)

## COC(=O)c1cc(OC)c(OC)cc1NC(=O)c1ccc(C)o1
[6]
  IC50: > 79 µM (inactive)

## CCn1c(C)cc(/C=C2\C(=O)NC(=O)N(c3ccccc3C)C2=O)c1C
[8]
  EC50: > 300 µM (not active)
[9]
  EC50: > 300 µM (not active)

## Cc1cc(NC(=O)c2cccs2)cc(-c2nc3ncccc3o2)c1O
[6]
  IC50: > 79 µM (inactive)

## O=C1N=C(Nc2ccccc2)S/C1=C\c1cccn1-c1ccccc1
[3]
  EC50: > 120 µM (not active)
[4]
  EC50: 32.5 µM (active)
[5]
  EC50: > 120 µM (not active)

## O=C(Nc1ccc(Cl)c(Cl)c1)Nc1ccccc1NS(=O)(=O)c1cccs1
[10]
  AC50: 7.6 µM (active)
[1]
  AC50: 4.19 µM (active)
[2]
  EC50: 29.1 µM (active)

## COc1ccccc1NCC(=O)N1CCN(S(=O)(=O)c2ccccc2)CC1
[11]
  AC50: > 260 µM (inactive)

## O=C(NCCCN1CCCC1)c1ccc2c(c1)N(Cc1ccccc1)CCS2
[7]
  IC50: > 20 µM (inactive)
[12]
  AC50: 0.022 µM (active)

## Cc1ccc(S(=O)(=O)N2CCOCC2)cc1C(=O)Nc1ccc(S(=O)(=O)Nc2nccs2)cc1
[8]
  EC50: > 300 µM (not active)
[9]
  EC50: > 300 µM (not active)

## Cc1ccc2c(c1)CCCN2C(=O)CCc1nc(O)c2ccccc2n1
[6]
  IC50: > 79 µM (inactive)

## O=[N+]([O-])c1ccc2c(c1)nc(O)c1ccccc12
[6]
  IC50: > 79 µM (inactive)

## Cn1c(=O)c2nc(NN=Cc3cccc(Br)c3)[nH]c2n(C)c1=O
[6]
  IC50: > 79 µM (inactive)

## COc1ccc(C(O)c2nc(-c3cccc(F)c3)cs2)cc1 (stereo unspecified)
[13]
  AC50: 41.9 µM (active)

## O=C(N/N=C/c1ccccn1)c1cccc([N+](=O)[O-])c1
[14]
  IC50: 22.2 µM (active)
[6]
  IC50: > 79 µM (inactive)

## Cc1ccc(/N=C/c2c(O)[nH]c3ccccc23)c([N+](=O)[O-])c1
[5]
  EC50: 22.3 µM (inconclusive)
